Columns and labels:
[1] = target: T1, Avi-KRAS G12D (1-169) GppNHp/RAF1 RBD-3xFLAG (52-151) (Homo sapiens, UniProt P01116, G12D); assay: Raf1-KRAS G12D-GppNHP disruption HTRF assay (Biological Example 1); format: binding
T1 construct: Avi-KRAS G12D (1-169)
In short: (§1)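 Read-out is HTRF signal of the KRAS–RAF1 RBD complex, reported as percentage of activity relative to DMSO (100%). Protein mix and detection reagents each incubated 1 h at room temperature with 700 rpm shaking. Buffer: 50 mM Tris pH 7.5, 100 mM NaCl, 5 mM MgCl2, 0.1% BSA, 0.01% Tween, 10% DMSO.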

[2] = target: T2, Avi-KRAS G12R (1-169) GppNHp/RAF1 RBD-3xFLAG (52-151) (Homo sapiens, UniProt P01116, G12R); assay: Raf1-KRAS G12R-GppNHP disruption HTRF assay (Biological Example 1); format: binding
T2 construct: Avi-KRAS G12R (1-169)
In short: as §1

[3] = target: T3, Avi-KRAS G12V (1-169) GppNHp/RAF1 RBD-3xFLAG (52-151) (Homo sapiens, UniProt P01116, G12V); assay: Raf1-KRAS G12V-GppNHP disruption HTRF assay (Biological Example 1); format: binding
T3 construct: Avi-KRAS G12V (1-169)
In short: as §1

[4] = target: T4, Avi-KRAS WT (1-169) GppNHp/RAF1 RBD-3xFLAG (52-151) (Homo sapiens, UniProt P01116); assay: Raf1-KRAS WT-GppNHP disruption HTRF assay (Biological Example 1); format: binding
T4 construct: Avi-KRAS WT (1-169)
In short: as §1

GP2d cells (KRAS G12D) = assay: Cell-based pERK HTRF assay in GP2d cell (Biological Example 2); details: GP2d (KRAS G12D) cells, pERK HTRF
In short: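 Phospho-ERK is measured by HTRF following a 60 min compound exposure at 0.25% DMSO, with a 9-point half-log curve topping at 1 μM or 100 nM.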

SW620 cells (KRAS G12V) = assay: Cell-based pERK HTRF assay in SW620 cell (Biological Example 4); details: pERK HTRF
In short: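 SW620 seeded in RPMI/10% FBS, next day dosed 4 h (top 1 μM, half-log, 9 pts, 0.25% DMSO). Lysed, pERK by d2/Eu cryptate HTRF, 4–24 h RT, 615 nm read.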

[5] = Homo sapiens, SW-620, SW620 (KRAS G12V) cells
[6] = KRAS G12D, GppNHp-loaded, Table 11
[7] = KRAS G12R, GppNHp-loaded, Table 11
[8] = KRAS G12V, GppNHp-loaded, Table 11
[9] = KRAS WT, GppNHp-loaded, Table 11

T4 sequence (P01116 1-169 isoform P01116-2): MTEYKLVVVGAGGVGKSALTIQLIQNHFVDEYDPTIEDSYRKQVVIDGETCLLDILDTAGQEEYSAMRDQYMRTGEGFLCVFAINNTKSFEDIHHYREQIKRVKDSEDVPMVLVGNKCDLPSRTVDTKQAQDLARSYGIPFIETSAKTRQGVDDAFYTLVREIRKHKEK
T3 sequence (P01116 1-169 isoform P01116-2 G12V): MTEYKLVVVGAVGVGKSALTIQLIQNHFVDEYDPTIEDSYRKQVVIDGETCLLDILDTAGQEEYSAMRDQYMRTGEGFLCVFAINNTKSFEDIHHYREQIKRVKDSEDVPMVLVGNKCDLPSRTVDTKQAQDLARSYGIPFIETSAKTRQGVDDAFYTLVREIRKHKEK
T2 sequence (P01116 1-169 isoform P01116-2 G12R): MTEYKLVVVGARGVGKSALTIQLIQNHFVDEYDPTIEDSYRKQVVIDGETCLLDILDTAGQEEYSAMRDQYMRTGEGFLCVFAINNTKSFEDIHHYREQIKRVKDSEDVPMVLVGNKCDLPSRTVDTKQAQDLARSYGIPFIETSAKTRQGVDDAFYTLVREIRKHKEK
T1 sequence (P01116 1-169 isoform P01116-2 G12D): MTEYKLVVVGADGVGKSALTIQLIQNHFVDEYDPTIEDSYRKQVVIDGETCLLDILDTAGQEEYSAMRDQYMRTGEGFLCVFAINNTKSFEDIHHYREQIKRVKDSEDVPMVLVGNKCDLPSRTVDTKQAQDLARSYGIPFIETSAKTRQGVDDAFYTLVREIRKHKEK

SMILES	IC50 ([1]; KRAS G12D-GppNHp/RAF1 RBD HTRF)	IC50 ([2]; KRAS G12R-GppNHp/RAF1 RBD HTRF)	IC50 ([3]; KRAS G12V-GppNHp/RAF1 RBD HTRF)	IC50 ([4]; KRAS WT-GppNHp/RAF1 RBD HTRF)	IC50 (GP2d cells (KRAS G12D); GP2d)	IC50 (SW620 cells (KRAS G12V); [5])	also measured
N#Cc1cc2n(n1)CCN(c1nc(OC[C@@]34CCCN3C[C@H](F)C4)nc3c(F)c(-c4ccc(F)c5sc(N)c(C#N)c45)c(C(F)(F)F)cc13)C2 [Compound 393]	1000 to 10000 nM	> 10000 nM	> 10000 nM	> 10000 nM	< 100 nM	< 100 nM	
C[C@@H]1[C@H](N(C)c2nc(OC[C@@]34CCCN3C[C@H](F)C4)nc3c(F)c(-c4ccc(F)c5sc(N)c(C#N)c45)c(C(F)(F)F)cc23)CCN1C(=O)C(F)F [Compound 458]	100 to 1000 nM	100 to 1000 nM	100 to 1000 nM	100 to 1000 nM	< 100 nM	< 100 nM	
N#Cc1c(N)sc2c(F)ccc(-c3c(Cl)cc4c(N5C[C@H]6C[C@@H]5CO6)nc(OC[C@@]56CCCN5C[C@H](F)C6)nc4c3F)c12 [Compound 364]	100 to 1000 nM	1000 to 10000 nM	1000 to 10000 nM	1000 to 10000 nM	< 100 nM	< 100 nM	
CC#CC(=O)N1CC[C@H](N(CC)c2nc(OC[C@@]34CCCN3C[C@H](F)C4)nc3c(F)c(-c4ccc(F)c5sc(N)c(C#N)c45)c(C(F)(F)F)cc23)C1 (atropisomer, axis not shown) [Compound 679]							IC50 ([1]; KRAS G12D, GppNHp-loaded, class symbols): < 100 nM; IC50 ([2]; KRAS G12R, GppNHp-loaded, class symbols): < 100 nM; IC50 ([3]; KRAS G12V, GppNHp-loaded, class symbols): < 100 nM; IC50 ([4]; KRAS WT, GppNHp-loaded, class symbols): < 100 nM; IC50 (GP2d cells (KRAS G12D); GP2d, class symbols): < 100 nM; IC50 (SW620 cells (KRAS G12V); Homo sapiens, SW-620, SW620 (KRAS G12V) cells, class symbols): < 100 nM
CN(c1nc(OC[C@@]23CCCN2C[C@H](F)C3)nc2c(F)c(-c3ccc(F)c4sc(N)c(C#N)c34)c(C(F)(F)F)cc12)C1CCOCC1 [Compound 264]					< 100 nM	100 to 1000 nM	IC50 [1, 6]: 100 to 1000 nM; IC50 [2, 7]: 100 to 1000 nM; IC50 [3, 8]: 1000 to 10000 nM; IC50 [4, 9]: 100 to 1000 nM
N#CCC[C@H]1CCN(c2nc(OC[C@@]34CCCN3C[C@H](F)C4)nc3c(F)c(-c4ccc(F)c5sc(N)c(C#N)c45)c(C(F)(F)F)cc23)C1 [Compound 214]					100 to 1000 nM	100 to 1000 nM	IC50 [1, 6]: 1000 to 10000 nM; IC50 [2, 7]: 1000 to 10000 nM; IC50 [3, 8]: 1000 to 10000 nM; IC50 [4, 9]: 1000 to 10000 nM
CC(=O)N1C[C@H]2OCCN(c3nc(OC[C@@]45CCCN4C[C@H](F)C5)nc4c(F)c(-c5ccc(F)c6sc(N)c(C#N)c56)c(C(F)(F)F)cc34)[C@H]2C1 [Compound 480]	1000 to 10000 nM	1000 to 10000 nM	1000 to 10000 nM	1000 to 10000 nM	< 100 nM	< 100 nM	
N#Cc1c(N)sc2c(F)ccc(-c3c(C(F)(F)F)cc4c(N5C6COCC5CC(O)C6)nc(OC[C@@]56CCCN5C[C@H](F)C6)nc4c3F)c12 (stereo partly drawn) [Compound 374]	100 to 1000 nM	1000 to 10000 nM	1000 to 10000 nM	100 to 1000 nM	< 100 nM	< 100 nM	

More lines, main results first:

IC50 ([1]; KRAS G12D-GppNHp/RAF1 RBD HTRF)	IC50 ([2]; KRAS G12R-GppNHp/RAF1 RBD HTRF)	IC50 ([3]; KRAS G12V-GppNHp/RAF1 RBD HTRF)	IC50 ([4]; KRAS WT-GppNHp/RAF1 RBD HTRF)	IC50 (GP2d cells (KRAS G12D); GP2d)	IC50 (SW620 cells (KRAS G12V); [5])	SMILES	also measured
				< 100 nM	100 to 1000 nM	CC(=O)N(C)[C@@H]1CCN(c2nc(OC[C@@]34CCCN3C[C@H](F)C4)nc3c(F)c(-c4ccc(F)c5sc(N)c(C#N)c45)c(C(F)(F)F)cc23)C1 [Compound 207]	IC50 [1, 6]: 100 to 1000 nM; IC50 [2, 7]: 100 to 1000 nM; IC50 [3, 8]: 100 to 1000 nM; IC50 [4, 9]: 100 to 1000 nM
100 to 1000 nM	100 to 1000 nM	100 to 1000 nM	100 to 1000 nM	< 100 nM	100 to 1000 nM	CC(=O)N1C[C@@H](C)[C@H](N(C)c2nc(OC[C@@]34CCCN3C[C@H](F)C4)nc3c(F)c(-c4ccc(F)c5sc(N)c(C#N)c45)c(C(F)(F)F)cc23)C1 [Compound 303]	
1000 to 10000 nM	> 10000 nM	> 10000 nM	1000 to 10000 nM			CCN(c1nc(OC[C@@]23CCCN2C[C@H](F)C3)nc2c(F)c(-c3ccc(F)c4sc(N)c(C#N)c34)c(C(F)(F)F)cc12)[C@H]1CCS(=O)(=O)C1 (atropisomer, axis not shown) [Compound 491]	IC50 (GP2d cells (KRAS G12D)): 100 to 1000 nM; IC50 (SW620 cells (KRAS G12V); SW620 (KRAS G12V) cells): 100 to 1000 nM

From patent publication US20260042764A1, “COMPOSITIONS AND METHODS FOR INHIBITION OF KRAS” (TheRas, Inc., priority 2022, published 2026)
